{"source": "patent US20250215071A1", "about": "“Novel Mcl-1 inhibitor and combination of Mcl-1 and a BH3 mimetic, such as a Bcl-2 inhibitor” (NETRIS PHARMA, priority 2022, published 2025)", "system": "caspase-9", "assay": "UNC5B-induced caspase-9 activity in HeLa UNC5B cells", "assay_type": "cell-based, Human", "conditions": "Dox; 18 hours", "protocol": "FIG. 5. UNC5B-mediated Mcl-1 degradation induces MOMP and caspase-9 activation. (A): UNC5B over-expression triggers Mitochondrial Outer Membrane Permeabilization (MOMP) in a COMMD2/CRL3 complex-dependent manner. Hela cells were transfected with scramble (siCTRL), COMMD2 (siCOMMD2-1) or RBX1 (siRBX1-1) siRNAs. 24 hours after transfection, cells were treated with Dox and after further 18 hours mitochondrial depolarization quantified by 5′,6,6′-tetrachloro-1,1′,3,3′-tetraethylbenzimi-dazolylcarbocyanine iodide (JC-1) dye staining, using NucleoCounter NC3000 (n=3, **** p<0.0001, ordinary two-way ANOVA with Tukey's multiple comparisons test). Values are given as means±SEM. (B,C,D): Apoptotic cell death induced by UNC5B over-expression requires caspase-9. HeLa UNC5B cells were transfected with scramble (siCTRL) or caspase-9 (siCASP9) siRNAs and 24 hours later treated with the indicated concentrations of Dox. Propidium iodide (PI)-positive cells were assessed in real-time up to 48 hours using Incucyte Zoom instrument (C) (n=[…], Kolmogorov-Smirnov test). DNA fragmentation was assessed by FACS analysis (D) and caspase-3 was measured using caspase-3 fluorometric kit (E), both 18 hours after treatment (n=[…], **** p<0.0001, ordinary two-way ANOVA with Šidák's multiple comparisons test). Values are given as means±SEM. […] HeLa UNC5B cells were treated with Dox and 18 hours later caspase-9 and -8 activities were assessed by fluorometric kit, using specific substrates (n=3, ^nsp>0.05, *p<0.05, Mann-Whitney test, one-tailed). […] 24 hours later, cells were treated with Dox and caspase-9 activity was measured by fluorometric kit (n=3, **** p<0.0001, ordinary two-way ANOVA with Tukey's multiple comparisons test). […] 18 hours after treatment, caspase-9 activity was assessed with the fluorometric kit (n=5, *p<0.05, ** p<0.01, *** p<0.001, **** p<0.0001, ordinary two-way ANOVA with Tukey's multiple comparisons test). […] Cells were then treated with Dox and Mcl-1 protein was evaluated by western blot. […]", "data": [{"smiles": "CC(C)C[C@H](NC(=O)[C@H](Cc1ccccc1)NC(=O)c1cnccn1)B(O)O", "note": "[bortezomib]", "values": [{"measurement": "UNC5B-induced caspase-9 activation", "value": "sufficient to prevent UNC5B-induced caspase-9 activation"}]}]}
